Results as given in BigSolDB 2.1.

N#Cc1ccc2c(c1)OCO2
solubility (mole fraction)
Settings	278.15 K	283.15 K	288.15 K	293.15 K	298.15 K	303.15 K	308.15 K	313.15 K	318.15 K	323.15 K
in 1,4-dioxane	–	–	0.174	0.197	0.221	0.256	0.283	0.325	0.358	0.406
in 2-methoxyethanol	0.0495	0.0606	0.0722	0.0849	0.101	0.119	0.137	0.16	0.192	0.221
in DMF	0.172	0.193	0.212	0.239	0.264	0.293	0.32	0.36	0.39	0.433
in acetone	0.101	0.118	0.136	0.158	0.181	0.207	0.237	0.269	0.307	0.349
in acetonitrile	0.0673	0.0811	0.0999	0.12	0.143	0.173	0.203	0.243	0.283	0.33
in ethanol	0.00686	0.00878	0.0111	0.0133	0.0166	0.0214	0.0266	0.034	0.0435	0.0548
in ethyl acetate	0.0892	0.102	0.118	0.14	0.166	0.187	0.217	0.247	0.282	0.322
in isopropanol	0.00473	0.00606	0.00772	0.00933	0.0127	0.0168	0.0202	0.0268	0.0338	0.0445
in isopropyl acetate	0.0657	0.0784	0.0948	0.112	0.13	0.155	0.179	0.211	0.243	0.277
in methanol	0.00823	0.0104	0.0123	0.0157	0.0192	0.024	0.031	0.0387	0.0495	0.0617
in methyl acetate	0.102	0.118	0.137	0.16	0.184	0.21	0.24	0.274	0.31	0.353
in n-propanol	0.00603	0.00758	0.00949	0.0122	0.0159	0.02	0.0255	0.0329	0.0433	0.0573
in n-propyl acetate	0.0785	0.0928	0.113	0.128	0.149	0.176	0.204	0.235	0.27	0.31
